Assay [1] addresses T1, native malate dehydrogenase (Sus scrofa, UniProt P00346).
T1 sequence (P00346 25-338): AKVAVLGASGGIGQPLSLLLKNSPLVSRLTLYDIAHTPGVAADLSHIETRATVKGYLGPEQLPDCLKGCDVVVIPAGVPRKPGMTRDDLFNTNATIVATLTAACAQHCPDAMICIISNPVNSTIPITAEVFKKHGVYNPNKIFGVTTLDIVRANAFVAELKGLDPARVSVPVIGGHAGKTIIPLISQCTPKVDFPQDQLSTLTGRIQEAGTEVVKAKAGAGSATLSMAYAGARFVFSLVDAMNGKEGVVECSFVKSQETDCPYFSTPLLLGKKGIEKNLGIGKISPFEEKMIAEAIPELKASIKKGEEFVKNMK
Put plainly: Native MDH enzymatic reporter counter-screen. The class given is biochemical. (A counterscreen serves to expose hits that act by an unwanted route or on another target.)

Another assay addresses T2, native rhodanese (Bos taurus, UniProt P00586).
T2 sequence (P00586 2-297 limits assumed): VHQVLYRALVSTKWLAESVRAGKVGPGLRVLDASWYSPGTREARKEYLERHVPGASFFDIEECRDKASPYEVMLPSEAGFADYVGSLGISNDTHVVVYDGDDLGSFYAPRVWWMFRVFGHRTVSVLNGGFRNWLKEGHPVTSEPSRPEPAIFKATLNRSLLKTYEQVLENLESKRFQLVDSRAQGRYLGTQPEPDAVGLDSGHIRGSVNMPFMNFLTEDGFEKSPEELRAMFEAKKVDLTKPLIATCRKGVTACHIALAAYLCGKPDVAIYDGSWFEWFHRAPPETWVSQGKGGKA
Put plainly: Native Rho enzymatic reporter counter-screen. The class given is biochemical.

Assay [2] has as its system MRSA strain (ATCC BAA-44). Put plainly: 12-day serial passage MRSA resistance assay. The class given is cell-based, Staphylococcus aureus. The settings on record: for MRSA resistance generation: 12 passages over 12 days.
The next assay addresses E. coli GroEL (Escherichia coli, UniProt P0A6F5). Put plainly: Isothermal titration calorimetry binding to GroEL. The settings on record: for T∆S: 20°C (293.15 K); for Stoichiometry n, GroELmonomer : Molecule: single-site binding model; for ∆G: calculated with Gibbs equation at 20°C.
The next assay deals with S. aureus (ATCC 25923). Put plainly: S. aureus proliferation assay. The format is cell-based, Staphylococcus aureus.
Another assay relates to MRSA (ATCC BAA-44). The experiment in a line: MRSA proliferation assay. The class given is cell-based, Staphylococcus aureus.
The subject of another assay is ESKAPE pathogens. The settings on record: cited from earlier work.

Here are results for seven compounds from paper PMC6345161 (Journal of medicinal chemistry, 2018).

SMILES strings stand for the structures.

Sequence of E. coli GroEL (P0A6F5 2-548): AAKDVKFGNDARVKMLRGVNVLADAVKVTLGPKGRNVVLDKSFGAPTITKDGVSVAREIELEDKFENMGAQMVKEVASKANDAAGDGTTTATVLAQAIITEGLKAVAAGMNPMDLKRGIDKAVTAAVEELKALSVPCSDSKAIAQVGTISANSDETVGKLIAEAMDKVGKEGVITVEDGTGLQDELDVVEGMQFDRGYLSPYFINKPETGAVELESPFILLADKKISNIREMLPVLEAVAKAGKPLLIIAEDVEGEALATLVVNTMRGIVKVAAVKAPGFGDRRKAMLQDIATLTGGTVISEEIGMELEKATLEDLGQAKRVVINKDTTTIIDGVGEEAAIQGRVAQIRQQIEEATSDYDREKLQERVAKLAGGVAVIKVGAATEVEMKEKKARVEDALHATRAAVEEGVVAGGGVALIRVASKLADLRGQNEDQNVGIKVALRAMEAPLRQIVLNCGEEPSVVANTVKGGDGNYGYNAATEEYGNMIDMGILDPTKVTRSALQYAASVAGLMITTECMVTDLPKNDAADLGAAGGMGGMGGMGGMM

Regarding `O=[N+]([O-])c1cc(S(=O)(=O)Nc2ccc(-c3nc4cc(NS(=O)(=O)c5ccc(Cl)s5)ccc4o3)cc2)ccc1Cl` [28R], the “inhibition of native malate dehydrogenase” value in assay [1] was “only to a minor extent”. Also, the “inhibition of native rhodanese” value against native rhodanese is “only to a minor extent”. The “MRSA resistance generation” value in assay [2] was “rapidly developed resistance”. For the same compound, the “sensitivity of resistant MRSA after culture without inhibitor” value in assay [2] (two days without inhibitors (24 h agar, 24 h liquid)) was “regained sensitivity”.

Regarding `NCc1ccc(S(=O)(=O)Nc2ccc3oc(-c4ccc(NS(=O)(=O)c5ccc(Cl)s5)cc4)nc3c2)cc1` [20L], on E. coli GroEL (ITC, 20°C), the “Stoichiometry n, Molecule : GroELmonomer” value was determined as 1.67 ± 0.39; the “∆H” value is -34.7 ± 2.18 kJ/mol; the “∆S” value is given as 0.003 ± 0.002 kcal/molK; the “Stoichiometry n, GroELmonomer : Molecule” value is recorded as 0.6 ± 0.14. Further, the “T∆S” value on E. coli GroEL (ITC) was determined as 3.51 ± 2.3 kJ/mol. For the same compound, the “Stoichiometry n, Molecule : GroELoligomer” value at E. coli GroEL (ITC, 20°C, molecules per GroEL tetradecamer) worked out at 23.3 ± 5.4. Besides, the “∆G” value at E. coli GroEL was -38.2 ± 0.25 kJ/mol. The “inhibition of S. aureus proliferation” value with S. aureus (ATCC 25923) is given as “only moderately active”. Moreover, the “inhibition of MRSA proliferation” value in the assay with MRSA (ATCC BAA-44) is “only moderately active”.

On to `Cc1ccc(S(=O)(=O)Nc2ccc(-c3nc4ccc(NS(=O)(=O)c5ccc(C)cc5)cc4[nH]3)cc2)cc1` [compound 1], for which, in the assay with ESKAPE pathogens, the “antibacterial effects against ESKAPE pathogens” value is on record as “no antibacterial effects”.

For `CN[C@H](CC(C)C)C(=O)N[C@H]1C(=O)N[C@@H](CC(N)=O)C(=O)N[C@H]2C(=O)N[C@H]3C(=O)N[C@H](C(=O)N[C@H](C(=O)O)c4cc(O)cc(O)c4-c4cc3ccc4O)[C@H](O)c3ccc(c(Cl)c3)Oc3cc2cc(c3O[C@@H]2O[C@H](CO)[C@@H](O)[C@H](O)[C@H]2O[C@H]2C[C@](C)(N)[C@H](O)[C@H](C)O2)Oc2ccc(cc2Cl)[C@H]1O` [vancomycin, reference compound], the “MRSA resistance generation” value in assay [2] is recorded as “retained sensitivity”.

Turning to `O=S(=O)(Nc1ccc(-c2nc3cc(NS(=O)(=O)c4ccc(Cl)cc4)ccc3o2)cc1)c1ccc(Cl)cc1` [2c-p], the “inhibition of MRSA proliferation” value in the assay with MRSA (ATCC BAA-44) is “most potent and selective inhibitors of MRSA proliferation”.

Consider `O=S(=O)(Nc1ccc(-c2nc3cc(NS(=O)(=O)c4cccs4)ccc3o2)cc1)c1cccs1` [compound 6], for which, in the assay on MRSA (ATCC BAA-44), the “inhibition of MRSA proliferation” value was “most potent and selective inhibitors of MRSA proliferation”.

`NCc1ccc(S(=O)(=O)Nc2ccc(-c3nc4cc(NS(=O)(=O)c5ccc(Cl)s5)ccc4o3)cc2)cc1` [20R]: at E. coli GroEL (ITC, 20°C), the “Stoichiometry n, Molecule : GroELmonomer” value stood at 1.30 ± 0.27; the “∆H” value was -40.9 ± 3.35 kJ/mol; the “∆S” value was found to be 0.001 ± 0.003 kcal/molK; the “Stoichiometry n, GroELmonomer : Molecule” value is on record as 0.77 ± 0.16. Moreover, the “T∆S” value at E. coli GroEL (ITC) was 0.837 ± 3.43 kJ/mol. In addition, on E. coli GroEL, the “∆G” value was -41.8 ± 1.09 kJ/mol. In addition, the “MRSA resistance generation” value in assay [2] was “unable to generate resistance”. The “inhibition of S. aureus proliferation” value with S. aureus (ATCC 25923) is on record as “only moderately active”. Moreover, in the assay on MRSA (ATCC BAA-44), the “inhibition of MRSA proliferation” value was “only moderately active”.
